The structures appear in SMILES notation. pEC50, pIC50: −log10 of the molar value. Converted amounts (≈) assume the structure as drawn. A value given as a limit tells only on which side of the number the result lay.

Series [1] relates to Candida albicans. The experiment in a line: Antifungal activity against Candida albicans CPCC 400616. It is filed as functional.
The test system of series [2] is Candida albicans. Briefly: Antifungal activity against Candida albicans SC5314. It is filed as functional.
In another series the test system is Cryptococcus neoformans. Briefly: Antifungal activity against Cryptococcus neoformans CGMCC 2.3161. It is filed as functional.
The next series has as its system Pichia kudriavzevii. The experiment in a line: Antifungal activity against Candida krusei AS 2.1045. Format: functional.
The subject of the next series is Candida tropicalis. Briefly: Antifungal activity against Candida tropicalis CGMCC 2.3739. Format: functional.
In another series the test system is Nakaseomyces glabratus. The experiment in a line: Antifungal activity against Candida glabrata. Format: functional.
The next series concerns Candida parapsilosis. Briefly: Antifungal activity against Candida parapsilosis 22019. Format: functional. To be noted: Lodderomyces parapsilosis.
For the next series, the system named is Aspergillus fumigatus. The experiment in a line: Antifungal activity against Aspergillus fumigatus CGMCC 3.7795. Format: functional.
The test system of a further series is Human alphaherpesvirus 1. Briefly: Antiviral activity against HSV-1 infected in African green monkey Vero cells assessed as reduction in virus-induced cytopathic effect incubated for 3 days by MTT assay. It is filed as functional, organism-based. Particulars: Human alphaherpesvirus 1, Vero, 72 h. (In general: Damage to the host cells serves as the signal in cytopathic effect assays.)

Another series concerns Human alphaherpesvirus 2. Briefly: Antiviral activity against HSV-2 infected in African green monkey Vero cells assessed as reduction in virus-induced cytopathic effect incubated for 3 days by MTT assay. Format: functional, organism-based. To be noted: Human alphaherpesvirus 2, Vero, 72 h.
The subject of the next series is Human alphaherpesvirus 3. The experiment in a line: Antiviral activity against VZV infected in African green monkey Vero cells assessed as reduction in virus-induced cytopathic effect incubated for 3 days by MTT assay. It is filed as functional, organism-based. To be noted: Human alphaherpesvirus 3, Vero, 72 h.
A further series deals with Human betaherpesvirus 5. The experiment in a line: Antiviral activity against […] infected in African green monkey Vero cells assessed as reduction in virus-induced cytopathic effect incubated for 3 days by MTT assay. It is filed as functional, organism-based. To be noted: Human betaherpesvirus 5, Vero, 72 h.
The test system of a further series is OVCAR-3. The experiment in a line: Antiproliferative activity against human OVCAR-3 cells. Format: functional, cell-based.
A short description of series [3]: Antiproliferative activity against human OVCAR-10 cells. It is filed as functional, cell-based.
The subject of another series is ES-2. The experiment in a line: Antiproliferative activity against human ES2 cells. It is filed as functional, cell-based.
Series [4] in a line: Antiproliferative activity against human HEY A8 cells. Format: functional, cell-based.
The subject of the next series is HEK-293T. The experiment in a line: Antiproliferative activity against HEK293T. Particulars: Homo sapiens. It is filed as functional, cell-based.
For a further series, the system named is MHCC97H. Briefly: Antiproliferative activity against human MHCC97H cells assessed as reduction in cell viability incubated for 48 hrs by MTT assay. It is filed as functional, cell-based.
Series [5] in a line: Inhibition of TrxR (unknown origin) expressed in MHCC97H cells incubated for 24 hrs by colorimetric assay. It is filed as cell-based, Homo sapiens.
A short description of series [6]: Antioxidant activity assessed as inhibition of peroxynitrite mediated L-tyrosine nitration in sodium phosphate buffer at pH 7.5 incubated for 7 mins by RP-HPLC analysis. Format: functional.
The subject of series [7] is Candida albicans. The experiment in a line: Antifungal activity against azole-resistant Candida albicans clinical isolate CaR assessed as fungal growth inhibition incubated for 24 hrs by CLSI protocol based broth microdilution method. It is filed as functional.
Series [8] concerns Candida albicans. Briefly: Antifungal activity against azole-resistant Candida albicans clinical isolate 17 assessed as fungal growth inhibition incubated for 24 hrs by CLSI protocol based broth microdilution method. Format: functional.
The test system of series [9] is Candida albicans. Briefly: Antifungal activity against azole-resistant Candida albicans clinical isolate 632 assessed as fungal growth inhibition incubated for 24 hrs by CLSI protocol based broth microdilution method. Format: functional. Background: In broth dilution the organism is exposed to a series of concentrations in liquid medium.
Series [10] concerns Candida albicans. The experiment in a line: Antifungal activity against azole-resistant Candida albicans clinical isolate 901 assessed as fungal growth inhibition incubated for 24 hrs by CLSI protocol based broth microdilution method. Format: functional.
Series [11] concerns Candida albicans. Briefly: Antifungal activity against azole-resistant Candida albicans clinical isolate 904 assessed as fungal growth inhibition incubated for 24 hrs by CLSI protocol based broth microdilution method. It is filed as functional.
Series [12] is described as follows: Cytotoxicity against human A549 cells assessed as reduction in cell viability incubated for 96 hrs by MTT assay. Format: toxicity, cell-based.
Series [13] is described as follows: Cytotoxicity against human MDA-MB-231 cells assessed as reduction in cell viability incubated for 96 hrs by MTT assay. Format: toxicity, cell-based.
Series [14] is described as follows: Cytotoxicity against human SGC cells assessed as reduction in cell viability incubated for 96 hrs by MTT assay. Format: toxicity, cell-based. (Formazan colour is commonly taken as a measure of viable cells.)
Series [15] is described as follows: Antioxidant activity assessed as reduction in peroxynitrite mediated L-tyrosine nitration by measuring remaining activity relative to control. It is filed as functional. Details: concentration or dose not given beside the values.

Take `Cc1cccc(C)c1[Se]C(Cn1ccnc1)c1ccc(F)cc1` (stereo not drawn): the MIC against Candida albicans [1] was 0.03 mg/L (≈ 0.0804 µM); against Candida albicans [2], 0.03 mg/L (≈ 0.0804 µM); with Cryptococcus neoformans, 0.13 mg/L (≈ 0.348 µM); in the series on Pichia kudriavzevii it was 0.06 mg/L (≈ 0.161 µM); with Candida tropicalis, 0.06 mg/L (≈ 0.161 µM); in the series with Nakaseomyces glabratus, 0.25 mg/L (≈ 0.67 µM). For the same molecule, the MIC came to 0.13 mg/L (≈ 0.348 µM) in the series on Candida parapsilosis and 2 mg/L (≈ 5.36 µM) in the series on Aspergillus fumigatus.
Turning to `NC1=Nc2c(ncn2C[Se]CCO)C(N)N1` (stereo not drawn), the pEC50 is 4.81 with Human alphaherpesvirus 1, 4.49 in the series on Human alphaherpesvirus 2, less than 4.00 in the series on Human alphaherpesvirus 3 and less than 4.00 with Human betaherpesvirus 5.
`O=C1N[C@H]2[C@H](CS[C@H]2CCCCC(=O)[Se]Cc2ccccc2)N1`: the negative-log IC50 (pIC50) in the series with OVCAR-3 is 4.43; in [3] it was 4.33; in the series with ES-2, 4.79; in series [4], 4.76; in the series on HEK-293T it was 5.18.
Turning to `N#Cc1cccc(-c2ccc(=O)n(Cc3cccc(-c4ncc([Se]CCCN5CCCCC5)cn4)c3)n2)c1`, the negative-log IC50 (pIC50) in the series with MHCC97H was 7.42; in series [5], 6.18.
In the case of `Cc1cc(=O)[nH]c(=S)[nH]1` [METHYLTHIOURACIL], the pIC50 in series [6] was 4.18.
In the case of `Clc1ccc(-c2nn[se]c2-n2ccnc2)c(Cl)c1`, the MIC in the series with Candida albicans [7] stood at 1 mg/L (≈ 2.91 µM); in the series with Candida albicans [8] it was 16 mg/L (≈ 46.5 µM); in the series with Candida albicans [9], 16 mg/L (≈ 46.5 µM); in the series on Candida albicans [10], 32 mg/L (≈ 93 µM); in the series on Candida albicans [11] it was 16 mg/L (≈ 46.5 µM). The IC50 at 96 h in series [12] was found to be 16.2 mg/L (≈ 47 µM); in series [13], 14.7 mg/L (≈ 42.7 µM); in series [14], 14.6 mg/L (≈ 42.5 µM).
`Cn1ccnc1S` [METHIMAZOLE]: the pIC50 in series [6] is 4.62. The Activity in [15] was 32.5%.
`N#C[Se]CCOC(=O)CCCC[C@@H]1SC[C@@H]2NC(=O)N[C@@H]21`: the pIC50 is 4.93 in the series on OVCAR-3; 4.73 in series [3]; 5.01 in the series with ES-2; 4.85 in [4]; 4.11 in the series with HEK-293T.
For the molecule `COc1cccc(Cn2ccn(Cc3cccc(OC)c3)c2=[Se])c1`, the negative-log IC50 (pIC50) in series [6] was 4.37. Besides, the Activity in series [15] came out at 82%.
For `CCCc1cc(=O)[nH]c(=S)[nH]1` [PROPYLTHIOURACIL], the pIC50 in series [6] was 4.02.
As to `COc1cc2c(c(OC)c1OC)-c1ccc(OC)c(=O)cc1[C@@H](NC(C)=O)CC2` [COLCHICINE], the 50% inhibitory concentration (IC50) at 96 h in [14] was 0.045 mg/L (≈ 0.113 µM).
Take `O=C(O)CCCC[C@@H]1SC[C@@H]2NC(=O)N[C@@H]21` [BIOTIN]: the pIC50 (in the series with OVCAR-3; in series [3]; with ES-2; in series [4]; with HEK-293T) was less than 4.00 throughout.
On to `CNC1NC(N)=Nc2c1ncn2C[Se]C(CO)CO` (stereo not drawn), for which the pEC50 in the series with Human alphaherpesvirus 1 was less than 4.00; with Human alphaherpesvirus 2 it was less than 4.00; in the series with Human alphaherpesvirus 3, less than 4.00; with Human betaherpesvirus 5, 4.49.
In the case of `N#Cc1cccc(-c2ccc(=O)n(Cc3cccc(-c4ncc([Se]CCN5CCCC5)cn4)c3)n2)c1`, the pIC50 is 7.20 in the series on MHCC97H and 6.10 in series [5].
For the molecule `C=Cn1ccn(C)c1=[Se]`, in series [15], the Activity was 71%.
As for `CCC(C)n1ncn(-c2ccc(N3CCN(c4ccc(OCC5COC(Cn6cncn6)(c6ccc(Cl)cc6Cl)O5)cc4)CC3)cc2)c1=O` (stereo not drawn) [ITRACONAZOLE], the MIC in the series with Candida albicans [7] was 8 mg/L (≈ 11.3 µM); in the series on Candida albicans [8] it was more than 128 mg/L; in the series with Candida albicans [9] it was more than 128 mg/L; in the series with Candida albicans [10], more than 128 mg/L; in the series on Candida albicans [11], more than 128 mg/L; in the series with Candida albicans [1], 0.25 mg/L (≈ 0.354 µM). Moreover, the MIC with Candida albicans [2] was found to be 0.03 mg/L (≈ 0.0425 µM); against Cryptococcus neoformans, 0.5 mg/L (≈ 0.709 µM); against Pichia kudriavzevii it was 0.06 mg/L (≈ 0.085 µM); with Candida tropicalis, 0.5 mg/L (≈ 0.709 µM); with Nakaseomyces glabratus, 0.5 mg/L (≈ 0.709 µM); against Candida parapsilosis, 0.25 mg/L (≈ 0.354 µM). The molecule also showed a minimal inhibitory concentration (MIC) in the series with Aspergillus fumigatus of 2 mg/L (≈ 2.83 µM).
For `CN1C=CN(CCn2ccn(C)c2=[Se])C1`, the Activity in [15] came out at 68.4%.
Consider `c1ccc(-c2nn[se]c2-n2cncn2)cc1`, for which the MIC in the series on Candida albicans [7] is 2 mg/L (≈ 7.24 µM); in the series with Candida albicans [8], 16 mg/L (≈ 57.9 µM); in the series on Candida albicans [9], 32 mg/L (≈ 116 µM); in the series on Candida albicans [10], 32 mg/L (≈ 116 µM); in the series with Candida albicans [11] it was 32 mg/L (≈ 116 µM). In addition, the IC50 at 96 h in series [12] is 20.5 mg/L (≈ 74.3 µM); in [13] it was 80.7 mg/L (≈ 292 µM); in series [14], 30.8 mg/L (≈ 111 µM).
Consider `C[Se]C(=O)CCCC[C@@H]1SC[C@@H]2NC(=O)N[C@@H]21`, for which the pIC50 is 4.65 with OVCAR-3; 4.60 in [3]; 5.01 in the series on ES-2; 4.69 in series [4]; 4.50 in the series with HEK-293T.

The MIC is the smallest concentration in the dilution series that meets the test's criterion for growth inhibition. As a reminder, the pEC50 is the EC50 on a negative log10 scale, so that one unit is a factor of ten. As a reminder, the pIC50 is the negative decadic logarithm of the IC50, by convention in mol/L. The term IC50 denotes the midpoint of a concentration-inhibition curve.
